Assay results published in patent US20250213697A1, “INJECTABLE AND/OR SPRAYABLE, IN SITU POLYMERIZABLE COLLAGEN COMPOSITIONS FOR SUSTAINED DELIVERY OF THERAPEUTICS” (priority 2023, published 2025).

What was measured:
Assay type in all cases: physicochemical
[1] = Short-term controlled release of lidocaine from collagen gel into 0.9% NaCl (HPLC); details: gel in 0.9% NaCl, 37° C., 80 RPM; FIG. 6
Experimental: One third of the same volume of collagen solution of a lidocaine sterile solution (0.9% Lidocaine, 7% Mannitol, 80 mM EDTA-2Na, 0.05M Na2CO3 and 0.05M NaHCO3) was added to collagen. 2 mL final mixed collagen solution was incubated under 37° C. to form a gel and put into 20 mL 37° C. 0.9% NaCl solution with a stir bar stirring at 80 RPM. At 10 min, 20 min, 30 min, 60 min, 90 min, and 120 min, 2 mL NaCl solution was collected to test lidocaine concentration and additional 2 mL 0.9% NaCl solution was replenished. HPLC method was used to measured lidocaine concentration and calculated to the percentage release of the lidocaine in collagen gel.

[2] = Film formation of sprayed in situ polymerizable collagen on skin or skin wounds; details: EGF 5,000-20,000 IU/mL
Experimental: The sprayable in situ polymerizable collagen was prepared by mix in situ polymerizable collagen prepared in Example 1 with PBS at volume ratio of 2:1. After mixing by stirring at 50 rpm for 10 min, the gel was centrifuge to remove the bubbles. The sprayable in situ polymerizable collagen was less viscous with better flowability and placed in a spray bottle and still remained transparent under room temperature. […] The in situ polymerizable collagen solution with EGF was sprayed to skin wounds through spray bottle and formed a film to cover the wound within 120 sec, providing a wet healing environment and continuous EGF delivery to accelerate skin healing or improve skin condition.

[3] = In vitro release of latanoprost from in situ polymerizable collagen gels into physiological saline (HPLC)
Experimental: Latanoprost (13,14-dihydro-17-phenyl-18,19,20-trinor-prostaglandin F2a-1-isopropyl ester) was obtained from Sigma-Aldrich. Soluble, pepsin digested, bovine collagen for drug delivery formulations was purchased from Advanced Biomatrix. In situ polymerizable collagen was prepared according to Example 1 by extensive dialysis of salt precipitated collagen against 0.035M EDTA with step-wise increase in pH to 7.5. Latanoprost was dissolved in 95% ethanol and added to polymerizable collagen solution to provide gel depots containing 250 μg latanoprost/100 μL collagen. The solutions were incubated in 1.0 mL of physiological saline at 37° C. The entire 1.0 mL volume was removed at time periods ranging from 1 day to 174 days and replaced with 1.0 mL of fresh saline. Latanoprost concentration in saline aliquots was measured by HPLC analysis (Millennium Research Laboratories).
In situ polymerizable collagen gels provided sustained in vitro release of Latanoprost for more than 30 days.

[4] = In vitro polymerization test of collagen/antibiotic compositions injected into WFI; details: 27-gauge needle
Experimental: 50 mg lyophilized and powdered (by mortar and pestle) Voriconazole was mixed with 200 μL of in situ polymerizable collagen solution prepared according to Example 1 by passing the powder into the collagen solution using two syringes attached with a female-female adaptor. The mixture appeared clear and transparent (FIG. 4A). Aliquots were injected into water for injection (WFI) using a 27-gauge needle. A control sample composed of in situ polymerizable collagen solution only was also injected into WFI.
Two other antibiotics, Cefuroxime and Vigamox, were mixed to in situ polymerizable collagen using the same method used for adding Voriconazole to the collagen to form a collagen/antibiotic composition, respectively. […] The appearance of the mixture depends on the solubility of the antibiotics.

[5] = In vitro release of Compstatin from in situ polymerizable collagen
Experimental: Delivery of a complement peptide-Compstatin from in situ polymerizable collagen prepared according to Example 1 was studied in vitro. In vitro release was measured for 6 weeks to ascertain the optimum collagen formulation.

CCN(CC)CC(=O)Nc1c(C)cccc1C [lidocaine]
controlled release of lidocaine [1]: within two hours

EGF: Epidermal Growth Factor lyophilized powder dissolved in in situ polymerizable collagen solution, 5,000-20,000 IU/mL
time to form a film covering the wound [2]: ≤ 120 s

CC(C)OC(=O)CCC/C=C\C[C@@H]1[C@@H](CC[C@@H](O)CCc2ccccc2)[C@H](O)C[C@@H]1O [Latanoprost, 13,14-dihydro-17-phenyl-18,19,20-trinor-prostaglandin F2a-1-isopropyl ester]
duration of sustained in vitro release of Latanoprost ([3]; in situ polymerizable collagen gels, saline 37° C.): more than 30 days
initial release of Latanoprost ([3]; polymerizable gels added directly to saline solution): large initial release
sustained release of Latanoprost, average ([3]; polymerizable gels added directly to saline solution, 250 μg latanoprost/100 μL collagen, 37° C.): 0.54 µg/day
initial release of Latanoprost ([3]; polymerizable gels partially pre-polymerized): reduced initial release
average sustained release rate of Latanoprost ([3]; polymerizable gels partially pre-polymerized before placing in solution, 250 μg latanoprost/100 μL collagen, 37° C.): 1.4 µg/day

CO/N=C(\C(=O)N[C@@H]1C(=O)N2C(C(=O)O)=C(COC(N)=O)CS[C@H]12)c1ccco1 [Cefuroxime]
collagen fibril formation [4]: do not blocking the fibril formation

CC[C@H](C)[C@H](N)C(=O)N[C@H]1CSSC[C@@H](C(=O)N[C@H](C(N)=O)[C@@H](C)O)NC(=O)[C@H](CCCN=C(N)N)NC(=O)[C@H](Cc2cnc[nH]2)NC(=O)[C@H](Cc2cnc[nH]2)NC(=O)CNC(=O)[C@H](Cc2c[nH]c3ccccc23)NC(=O)[C@H](CC(=O)O)NC(=O)[C@H](CCC(N)=O)NC(=O)[C@H](C(C)C)NC(=O)[C@H](C(C)C)NC1=O [Compstatin]
duration of initial burst [5]: 4 days
duration of sustained release [5]: 6 weeks
release kinetics ([5]; measured for 6 weeks): bi-phasic release kinetics
